Measured values: patent US6558712B1, “Delivery system for pharmaceutical, nutritional and cosmetic ingredients” (Natreon Inc., priority 2001, dated 2003)

Experiments:
[1] = Text: (§1) Glibenclamide (Gb) is an oral hypoglycaemic agent of the sulfonyl urea group; however it is only sparingly soluble in water.
[2] = test system: albino rats, made partially diabetic by administering streptozotocin; assay: Hypoglycaemic action (plasma glucose level) in albino rats made partially diabetic by streptozotocin; assay type: in vivo, rat; conditions: Gb 1.0 mg/kg, water-suspension, p.o., n=10
Text: as §1

[3] = test system: albino rats; assay: Analgetic effect in albino rats, oral; assay type: in vivo, rat; conditions: Ptz alone, up to 240 mg/kg, p.o.
[4] = test system: human volunteers; assay: Analgetic effect in human volunteers, oral; assay type: in vivo; conditions: Ptz alone, 50 mg oral
[5] = oral; background statement, species not given; cited from earlier work
[6] = test system: Streptozocin (Stz)-induced diabetic (SID) rats; assay: Plasma glucose level lowering in streptozocin-induced diabetic (SID) rats; assay type: in vivo, rat
Experimental: Streptozocin (Stz)-induced diabetic (SID) rats were used for this study. Insulin (I, 1.0 U/kg, p.o.) produed only marginal lowering (<10%) of plasma glucose level (PGL) in SID rats. […] By contrast, purified fulvic acid-insulin compositions (0.25 U/kg+10 mg/kg, p.o.) produced a 25% lowering, and Fulvic Acid-Insulin compositions (0.5 U/kg+10 mg/kg, p.o.) produced a 38% lowering of PGL in SID rates. The effect lasted for 6 hours.

Compound: COc1ccc(Cl)cc1C(=O)NCCc1ccc(S(=O)(=O)NC(=O)NC2CCCCC2)cc1 [Gb, Glibenclamide]
- solubility in water [1]: 10-12%
- blood sugar lowering effect [2]: did not exhibit any noticeable blood sugar lowering effect

Compound: CC(C)=CCN1CCC2(C)c3cc(O)ccc3CC1C2C (stereo not shown) [Ptz, Pentazocin]
- analgetic effect [3]: does not exhibit any analgetic effect
- analgetic effect compared with codeine [4]: effective analgetic equivalent to 60 mg of codeine
- duration of analgesia [4]: 120 min
- time of onset of analgesia [4]: 60 min
- bioavailability, administered orally [5]: 30-35%

Compound: Insulin
- PGL lowering effect ([6]; insulin 0.25 U/kg p.o.): did not exhibit any PGL lowering effect
- PGL lowering effect ([6]; insulin 0.5 U/kg p.o.): did not exhibit any PGL lowering effect
- lowering of plasma glucose level (PGL) ([6]; insulin 1.0 U/kg, p.o.): < 10%
